This assay deals with T1, Human M4 (Homo sapiens, UniProt P08173).
T1 sequence (P08173 1-479): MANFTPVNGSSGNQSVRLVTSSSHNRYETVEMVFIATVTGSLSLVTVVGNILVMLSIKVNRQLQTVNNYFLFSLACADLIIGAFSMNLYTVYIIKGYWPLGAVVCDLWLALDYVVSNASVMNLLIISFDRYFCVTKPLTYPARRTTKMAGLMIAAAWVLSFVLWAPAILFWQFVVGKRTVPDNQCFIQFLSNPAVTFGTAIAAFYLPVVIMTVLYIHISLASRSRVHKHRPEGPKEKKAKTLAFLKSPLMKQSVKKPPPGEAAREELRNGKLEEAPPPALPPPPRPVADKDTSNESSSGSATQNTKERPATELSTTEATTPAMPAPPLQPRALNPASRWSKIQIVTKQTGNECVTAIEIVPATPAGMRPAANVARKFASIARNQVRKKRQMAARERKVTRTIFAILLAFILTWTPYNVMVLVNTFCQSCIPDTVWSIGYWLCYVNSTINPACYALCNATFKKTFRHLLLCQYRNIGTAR
As to the kind of experiment: M4 cell-based functional assay (calcium mobilization). The arrangement: expressed in transfected cells. Conditions: for Emax at 30 µM: % ACh maximum at 30 μM; for EC50: CHO-K1 hM4-Gqi5 cells, calcium flux, increase in EC20 acetylcholine response. The protocol:
Human (h) and rat (r) M4 CDNAs, along with the chimeric G protein Gqi5, were transfected into Chinese hamster ovary (CHO-K1) cells purchased from the American Type Culture Collection using Lipofectamine2000. The transfected cells were subjected to selection antibiotic treatment to generate stable cell lines; G418 sulfate (1 mg/ml) for selecting M4 expressing cells and Hygromycin B (500 μg/mL) for selecting Gqi5 expressing cells. The resulting polyclones were further screened to obtain monoclones of hM4-Gqi5 and rM4-Gqi5 for compound screening assay. Stable monoclone cells were maintained in Ham's F-12 medium containing 10% heat-inactivated fetal bovine serum (FBS), 1× Antibiotic/Antimycotic, 20 mM HEPES, 500 μg/mL G418 sulfate, and 200 μg/mL Hygromycin B in 37° C. humidified incubators in the presence of 5% CO2.
The high throughput assay was employed to measure receptor-induced mobilization of intracellular calcium to determine compound activity. Test compound was added to cells expressing the muscarinic receptors that were loaded with calcium sensitive fluorescent dye. After a ˜2.5 minute incubation period, a submaximal (EC20) concentration of acetylcholine was added, and the response measured. This kinetic assay allows for simultaneous screening and potency determination of multiple pharmacological modes of action including agonist and potentiator activity. CHO-K1 cells stably expressing muscarinic receptors were plated in growth medium lacking G418 and hygromycin at 15,000 cells/20 μL/well in Greiner 384-well black-walled, tissue culture (TC)-treated, clear-bottom plates (Greiner Bio-One). Cells were incubated overnight at 37° C. and 5% CO2. The next day, calcium assay buffer (Hank's balanced salt solution (HBSS), 20 mM HEPES, 2.5 mM Probenecid, 4.16 mM sodium bicarbonate (Sigma-Aldrich, St. Louis, MO)) was prepared to dilute compounds, agonists, and Fluo-4-acetomethoxyester (Fluo-4-AM), fluorescent calcium indicator dye. Compounds were serially diluted 1:3 into 10 point concentration response curves in DMSO using the Bravo Liquid Handler (Agilent, Santa Clara, CA), transferred to a 384 well daughter plates using an Echo acoustic liquid handler (Beckman Coulter, Indianapolis, Indiana), and diluted in assay Buffer to a 2× final concentration. The agonist plates were prepared using acetylcholine (ACh, Sigma-Aldrich, St. Louis, MO) concentrations for the EC20 and ECMAX responses by diluting in assay buffer to a 5× final concentration. The 2× dye solution (2.3 μM) was prepared by mixing a 2.3 mM Fluo-4-AM stock in DMSO with 10% (w/v) pluronic acid F-127 in a 1:1 ratio in assay buffer. Using a microplate washer (BioTek, Winooski, VT), cells were washed with assay buffer for 3 times to remove medium. After the final wash, 20 μL of assay buffer remained in the cell plates. Immediately, 20 μL of the 2× dye solution (final 1.15 μM) was added to each well of the cell plate using a Multidrop Combi dispenser (Thermo Fisher, Waltham, MA). After cells were incubated with the dye solutions for 45 min at 37° C. in the presence of 5% CO2, the dye solutions were removed and replaced with assay buffer using a microplate washer, leaving 20 μL of assay buffer in the cell plate.
The prepared compound, agonist, and cell plates were placed inside the Functional Drug Screening System uCell (FDSS uCell, Hamamatsu, Japan) to measure the calcium flux.
The triple add protocol was used to measure Ca kinetics; Compound, ACh for EC2O, and ACh for EC80 adds in an order. Briefly, after establishment of a fluorescence baseline for 2 seconds (excitation, 480 nm; emission, 530 nm), first add occurred by adding 20 μL of test compound to the cells, and the response was measured for 140 seconds. This is followed by second add; 10 μL (5×) of an EC20 concentration of ACh agonist was added to the cells, and the response of the cells was measured for 125 seconds. […]
(In general: Calcium flux is commonly read through the fluorescence of an indicator in the cells.)

Where only a bound is given, the exact number is not on record here.

Broadly, the Emax is the greatest response seen or fitted, relative to the assay's reference. The term EC50 denotes the concentration at which the effect is half-maximal. With `Cc1cc(C#N)cnc1N1CCc2nc(Br)sc2C1` [Compound 1, 6-(2-bromo-6,7-dihydrothiazolo[5,4-c]pyridin-5(4H)-yl)-5-methylnicotinonitrile], the Emax at 30 µM amounted to 92% and the EC50 is 59 nM.
The corresponding values for `Cc1cc(-c2nc3c(s2)CN(c2ncc(C#N)cc2C)CC3)ccn1` [Compound 2, 5-methyl-6-(2-(2-methylpyridin-4-yl)-6,7-dihydrothiazolo[5,4-c]pyridin-5(4H)-yl)nicotinonitrile] are 59% and 612 nM.
For the compound `Cc1cc(C#N)cnc1N1CCc2nc(-c3cncs3)sc2C1` [Compound 3, 5-methyl-6-(2-(thiazol-5-yl)-6,7-dihydrothiazolo[5,4-c]pyridin-5(4H)-yl)nicotinonitrile], the Emax at 30 µM stood at 45% and the EC50 is greater than 10000 nM.
The corresponding values for `Cc1cc(C#N)cnc1N1CCc2nc(-c3cnn(C4CCC4)c3)sc2C1` [Compound 4, 6-(2-(1-cyclobutyl-1H-pyrazol-4-yl)-6,7-dihydrothiazolo[5,4-c]pyridin-5(4H)-yl)-5-methylnicotinonitrile] are 54% and greater than 10000 nM.
The corresponding values for `Cc1c(C#N)nnc(N2CCc3nc(Nc4ccccc4F)sc3C2)c1C` [Compound 5, 6-(2-((2-fluorophenyl)amino)-6,7-dihydrothiazolo[5,4-c]pyridin-5(4H)-yl)-4,5-dimethylpyridazine-3-carbonitrile] are 43% and greater than 10000 nM.
Take `Cc1c(C#N)nnc(N2CCc3nc(Nc4cccc(F)c4)sc3C2)c1C` [Compound 6, 6-(2-((3-fluorophenyl)amino)-6,7-dihydrothiazolo[5,4-c]pyridin-5(4H)-yl)-4,5-dimethylpyridazine-3-carbonitrile]: the Emax at 30 µM worked out at 41% and the EC50 is greater than 10000 nM.
The corresponding values for `Cc1c(C#N)nnc(N2CCc3nc(Nc4ccc(F)cc4)sc3C2)c1C` [Compound 7, 6-(2-((4-fluorophenyl)amino)-6,7-dihydrothiazolo[5,4-c]pyridin-5(4H)-yl)-4,5-dimethylpyridazine-3-carbonitrile] are 49% and 1290 nM.
`COc1nc2c(s1)CN(c1nnc(C#N)c(C)c1C)CC2` [Compound 8, 6-(2-methoxy-6,7-dihydrothiazolo[5,4-c]pyridin-5(4H)-yl)-4,5-dimethylpyridazine-3-carbonitrile]: the Emax at 30 µM came out at 79% and the EC50 was determined as 732 nM.
The corresponding values for `Cc1nc(Cl)c(C)c(N2CCc3nc(C)sc3C2)n1` [Compound 9, 5-(6-chloro-2,5-dimethylpyrimidin-4-yl)-2-methyl-4,5,6,7-tetrahydrothiazolo[5,4-c]pyridine] are 98% and 660 nM.
In the same order, the values of `Cc1c(C#N)nnc(N2CCc3nc(Br)sc3C2)c1C` [Compound 10, 6-(2-bromo-6,7-dihydrothiazolo[5,4-c]pyridin-5(4H)-yl)-4,5-dimethylpyridazine-3-carbonitrile] are 85% and 114 nM.
Turning to `Cc1nc(Cl)c(C)c(N2CCc3nc(Br)sc3C2)n1` [Compound 11, 2-bromo-5-(6-chloro-2,5-dimethylpyrimidin-4-yl)-4,5,6,7-tetrahydrothiazolo[5,4-c]pyridine], the Emax at 30 µM was determined as 85% and the EC50 amounted to 103 nM.
In the same order, the values of `Cc1c(C#N)nnc(N2CCc3nc(C4CC4)sc3C2)c1C` [Compound 12, 6-(2-cyclopropyl-6,7-dihydrothiazolo[5,4-c]pyridin-5(4H)-yl)-4,5-dimethylpyridazine-3-carbonitrile] are 76% and 161 nM.
`Cc1c(C#N)nnc(N2CCc3nc(C#N)sc3C2)c1C` [Compound 13, 5-(6-cyano-4,5-dimethylpyridazin-3-yl)-4,5,6,7-tetrahydrothiazolo[5,4-c]pyridine-2-carbonitrile]: the Emax at 30 µM amounted to 78% and the half-maximal effective concentration (EC50) was determined as 1210 nM.
The corresponding values for `Cc1nc(Cl)c(C)c(N2CCc3nc(Nc4ccccc4F)sc3C2)n1` [Compound 14, 5-(6-chloro-2,5-dimethylpyrimidin-4-yl)-N-(2-fluorophenyl)-4,5,6,7-tetrahydrothiazolo[5,4-c]pyridin-2-amine] are 51% and 5230 nM.
In the same order, the values of `Cc1nc2c(s1)CN(c1ncc(C#N)cc1C)CC2` [Compound 15, 5-methyl-6-(2-methyl-6,7-dihydrothiazolo[5,4-c]pyridin-5(4H)-yl)nicotinonitrile] are 87% and 371 nM.
In the same order, the values of `Cc1cc(C#N)cnc1N1CCc2nc(C3CC3)sc2C1` [Compound 16, 6-(2-cyclopropyl-6,7-dihydrothiazolo[5,4-c]pyridin-5(4H)-yl)-5-methylnicotinonitrile] are 84% and 103 nM.
For the compound `Cc1cc(C#N)cnc1N1CCc2ncsc2C1` [Compound 17, 6-(6,7-dihydrothiazolo[5,4-c]pyridin-5(4H)-yl)-5-methylnicotinonitrile], the Emax at 30 µM worked out at 92% and the EC50 came out at 3170 nM.
Turning to `Cc1cc(C#N)cnc1N1CCc2nc(NCc3cccc(F)c3)sc2C1` [Compound 18, 6-(2-((3-fluorobenzyl)amino)-6,7-dihydrothiazolo[5,4-c]pyridin-5(4H)-yl)-5-methylnicotinonitrile], the Emax at 30 µM amounted to 44% and the EC50 worked out at 4110 nM.
In the same order, the values of `Cc1cc(C#N)nnc1N1CCc2nc(Br)sc2C1` [Compound 19, 6-(2-bromo-6,7-dihydrothiazolo[5,4-c]pyridin-5(4H)-yl)-5-methylpyridazine-3-carbonitrile] are 99% and 851 nM.
The corresponding values for `[2H]C([2H])([2H])c1nc2c(s1)CN(c1ncc(C#N)cc1C)CC2` [Compound 20, 5-methyl-6-(2-(methyl-d3)-6,7-dihydrothiazolo[5,4-c]pyridin-5(4H)-yl)nicotinonitrile] are 101% and 243 nM.
`Cc1cc(C#N)cnc1N1CCc2nc(C(N)=O)sc2C1` [Compound 21, 5-(5-cyano-3-methylpyridin-2-yl)-4,5,6,7-tetrahydrothiazolo[5,4-c]pyridine-2-carboxamide]: the Emax at 30 µM turned out to be 98% and the EC50 came to 301 nM.
In the same order, the values of `Cc1coc2ncnc(N3CCc4nc(Br)sc4C3)c12` [Compound 22, 4-(2-bromo-6,7-dihydrothiazolo[5,4-c]pyridin-5(4H)-yl)-5-methylfuro[2,3-d]pyrimidine] are 96% and 106 nM.
As to `Cc1csc2ncnc(N3CCc4nc(Br)sc4C3)c12` [Compound 23, 2-bromo-5-(5-methylthieno[2,3-d]pyrimidin-4-yl)-4,5,6,7-tetrahydrothiazolo[5,4-c]pyridine], the Emax at 30 µM amounted to 82% and the half-maximal effective concentration (EC50) is 204 nM.

(Values after patent US12139498B1, “Positive allosteric modulators of the muscarinic acetylcholine receptor M4” (Vanderbilt University, priority 2023, dated 2024).)
